One data set has as its system MOLM-13 cells. Nature of the data set: Annexin-V staining (apoptosis), MOLM-13. The conditions noted are these: single agent: IDR 3 nM, AraC 100 nM or Aza 1000 nM, 48 hours. In kind it is cell-based, human. How it is done: MV4-11 cells were seeded in 12-well plates at a concentration of 2 × 10^5 cells/well and cultured overnight. […] MOLM-13 cells were seeded in 12-well plates at a concentration of 1 × 10^5 cells/well and cultured overnight.
Cells were harvested and incubated with Guava® Nexin Reagent (Merck Millipore Corporation, Billerica, MA). Annexin-V-positive cells were assessed using a Guava® PCA microcytometer (Merck Millipore Corporation); the percentage of annexin-V-positive cells (2000 cells per sample) was analyzed using CytoSoft™ software (Merck Millipore Corporation). Mean percentages of annexin-V-positive cells were derived from three independent experiments.

Data set [1] concerns MCL-1, BCL2L10, survivin and cPARP in MOLM-13 cells. Nature of the data set: Western blot analysis of anti-apoptotic protein expression, MOLM-13. Type of data set: cell-based, human. The conditions noted are these: MOLM-13, 24-hour treatment; gilteritinib 30 nM, AraC 100 nM, IDR 3 nM, Aza 1000 nM. The method, then:
Cell lysates were prepared in radioimmunoprecipitation assay buffer (Thermo Fisher Scientific Inc., Rockford, IL) supplemented with phosphatase (Thermo Fisher Scientific Inc.) and protease inhibitors (Merck, Billerica, MA), electrophoresed on 4%–15% gels, and subsequently transferred to polyvinylidene difluoride membranes. The membranes were blocked using Blocking One (Nacalai Tesque Inc., Kyoto, Japan) for 1 hour and then incubated overnight with primary antibodies to MCL-1, BCL210, cPARP (all from Cell Signaling Technology, Danvers, MA, USA), survivin (R&D Systems, Inc., Minneapolis, MN), and α-actin (MilliporeSigma, Burlington, MA). The membranes were washed with TBS Tween-20 (TBS-T) buffer and incubated with appropriate horseradish peroxidase-linked secondary antibodies (Cell Signaling Technology Japan K.K.) for 1 hour at room temperature. After washing the membranes in TBS-T buffer, enhanced chemiluminescence Western Blotting Detection Reagent ECL-prime (GE Healthcare, Fairfield, CT) was applied. Signals were detected with a charge-coupled device camera (ImageQuant LAS4000; GE Healthcare); signal intensity was quantified using ImageQuant™ TL software (GE Healthcare).

A short description of data set [2]: Pharmacokinetic assays (plasma and tumor) in nude mice xenografted with MV4-11 cells. The conditions noted are these: for Cmax / Tmax / AUC / half-life / clearance / Vd: nude, mouse; for AUC: read-out: AUC24; for concentration in tumor fraction versus plasma fraction: xenografted mice; for clearance: read-out: CLtot (converted); for Vd: read-out: Vss. In kind it is in vivo, mouse. The method, then:
Plasma samples were prepared by centrifugation (n=3 per group; one sample in the combination group was excluded due to improper handling). […] These assays were conducted by Astellas Research Technologies Co., Ltd. under the guidance of Analysis & Pharmacokinetics Research Laboratories, Astellas Pharma, Inc., or by Nemoto Science Co., Ltd. (Ibaraki, Japan). […] Body weight and tumor assessments obtained on with MV4-11 cells received one of the following Day −1 were designated as Day 0 (baseline) measurements. combination treatments: 1. […] The percent tumor regression was calculated using the formula: […]

Where [3] appears, read: plasma, ip, 50 mg/kg, AraC in plasma, gilteritinib 3, AraC 50, IDR 0.5 mg/kg.
The mark [4] stands for this setting: plasma, ip, AraC in plasma, gilteritinib 0, AraC 50, IDR 0.5 mg/kg.
Setting [5] is: tumor, ip, 50 mg/kg, AraC in tumor, gilteritinib 3, AraC 50, IDR 0.5 mg/kg.
The mark [6] stands for this setting: tumor, ip, AraC in tumor, gilteritinib 0, AraC 50, IDR 0.5 mg/kg.
Where [7] appears, read: idarubicin in tumor, with versus without gilteritinib.
The mark [8] stands for this setting: tumor, iv, 0.5 mg/kg, idarubicin in tumor, gilteritinib 0, AraC 50, IDR 0.5 mg/kg.
Setting [9] is: tumor, iv, idarubicin in tumor, gilteritinib 3, AraC 50, IDR 0.5 mg/kg.

Counter-ions that a name gives are not always drawn. Like-named read-outs stand apart in the source and are kept apart here.

One may read the Cmax as the highest concentration seen after dosing. One may read the Tmax as the time at which the peak concentration occurs. As to `Nc1ccn([C@@H]2O[C@H](CO)[C@@H](O)[C@@H]2O)c(=O)n1` [AraC, Cytarabine], the “mean percentage of annexin V-positive cells” value in the data set on MOLM-13 cells is 21.9%. In addition, in data set [1], the “expression of MCL-1, BCL2L10, and survivin” value is on record as “little effect”. In addition, the AUC24 ratio in data set [2] (AraC in plasma, with versus without gilteritinib) was determined as 0.32; in data set [2] (AraC in tumor, with versus without gilteritinib), 1.13. For the same molecule, the AUC24 in data set [2] (AraC in tumor, gilteritinib 0, AraC 50, IDR 0.5 mg/kg) turned out to be 7968 ng·h/g. In addition, the Cmax in data set [2] (setting [3]) amounted to 18000 ng/mL; in data set [2] (setting [4]), 28700 ng/mL; in data set [2] (setting [5]) it was 1060 ng/g; in data set [2] (setting [6]), 904 ng/g. Also, the Tmax in data set [2] (setting [3]) came out at 0.083 h; in data set [2] (setting [4]), 0.25 h; in data set [2] (setting [5]) it was 2 h; in data set [2] (setting [6]) it was 2 h. Besides, the AUC in data set [2] (setting [3]) is 9960 ng·h/mL; in data set [2] (setting [4]), 31600 ng·h/mL. Also, in data set [2], the “concentration in tumor fraction versus plasma fraction” value was “higher in the plasma fraction”.

A word on the half-life: it is how long it takes for the measured level to halve. As to `CC(=O)[C@]1(O)Cc2c(O)c3c(c(O)c2[C@@H](O[C@H]2C[C@H](N)[C@H](O)[C@H](C)O2)C1)C(=O)c1ccccc1C3=O` [IDR, Idarubicin hydrochloride], in the data set with MOLM-13 cells, the “mean percentage of annexin V-positive cells” value was 36.6%. The “expression of MCL-1, BCL2L10, and survivin” value in data set [1] was “little effect”. In addition, the “AUC24 ratio” value was 1.23 in data set [2] (idarubicin in plasma, with versus without gilteritinib) and 1.08 in data set [2] (setting [7]). Besides, the AUC24 in data set [2] (idarubicin in tumor, gilteritinib 0, AraC 50, IDR 0.5 mg/kg) turned out to be 4491 ng·h/g; in data set [2] (idarubicin in tumor, gilteritinib 3, AraC 50, IDR 0.5 mg/kg), 4855 ng·h/g. The Cmax ratio in data set [2] (setting [7]) turned out to be 1.11. Moreover, the half-life in data set [2] (plasma, iv) was 2.24 h; in data set [2] (plasma, iv, 0.5 mg/kg), 1.49 h. For the same molecule, the AUC in data set [2] (plasma, iv, 0.5 mg/kg, idarubicin in plasma, gilteritinib 0, AraC 50, IDR 0.5 mg/kg) is 63.3 ng·h/mL; in data set [2] (plasma, iv, idarubicin in plasma, gilteritinib 3, AraC 50, IDR 0.5 mg/kg), 77.9 ng·h/mL. Also, the clearance is 217 mL/min/kg in data set [2] (plasma, iv, 0.5 mg/kg) and 172 mL/min/kg in data set [2] (plasma, iv). Also, the Vd in data set [2] (plasma, iv, 0.5 mg/kg) was determined as 26.7 L/kg; in data set [2] (plasma, iv) it was 31.5 L/kg. The Cmax was 204 ng/g in data set [2] (setting [8]) and 226 ng/g in data set [2] (setting [9]). The Tmax in data set [2] (setting [8]) was found to be 4 h; in data set [2] (setting [9]), 24 h. In addition, the “concentration in tumor fraction versus plasma fraction” value in data set [2] was “higher in the tumor fraction”.

Source of the values: publication PMC6493465 (Oncotarget, 2019).
